US6369111B1, “Substituted oximes” (priority 1998, dated 2002)

Test: logP determination by HPLC (EEC Directive 79/831 Annex V. A8)
Format: physicochemical
Description: The logP values were determined in accordance with EEC Directive 79/831 Annex V. A8 by HPLC (gradient method, acetonitrile/0.1% aqueous phosphoric acid (s) or gradient method, acetonitrile/0.1% water (n))

Compound | chromatographic logP
CO/N=C(SC)/C(C)=N/OCc1ccccc1/C(=C\C(=O)OC)OC [Example 1, methyl 3-methoxy-3-[2-(2-methoxyamino-1-methyl-2-methylthio-ethylideneaminooxymethyl)-phenyl]-acrylate] | 3.5
CO/N=C(OC)/C(C)=N/OCc1ccccc1/C(=C\C(=O)OC)OC [Example 3, methyl 3-methoxy-3-[2-(2-methoxy-2-methoxyimino-1-methyl-ethylideneaminooxymethyl)-phenyl]-acrylate] | 3.05
CO/N=C(/C(C)=N/OCc1ccccc1/C(=C\C(=O)OC)OC)S(C)(=O)=O [Example 2, methyl 3-[2-(2-methanesulfonyl-2-methoxyimino-1-methyl-ethylideneaminooxymethyl)-phenyl]-3-methoxy-acrylate] | 2.79
